Results taken from PubChem BioAssay (NCI).
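Results reflect a 48-hour exposure of cells in 96-well plates to compound at five concentrations. Here, GI50 denotes the concentration required for 50% inhibition of growth. TGI marks complete inhibition of growth.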

How the values were obtained:
Experiment in all cases: NCI-60 cell line screen, 48 h
786-0 renal = tested on: 786-0 renal
A498 renal = tested on: A498 renal
A549 NSCLC = tested on: A549 NSCLC
HCC-2998 colon = tested on: HCC-2998 colon
HCT-116 colon = tested on: HCT-116 colon
HCT-15 colon = tested on: HCT-15 colon
IGROV1 ovarian = tested on: IGROV1 ovarian
MCF7 breast = tested on: MCF7 breast
MDA-N = tested on: MDA-N
NCI/ADR-RES ovarian = tested on: NCI/ADR-RES ovarian
PC-3 prostate = tested on: PC-3 prostate
RPMI-8226 leukemia = tested on: RPMI-8226 leukemia
SK-MEL-2 melanoma = tested on: SK-MEL-2 melanoma
SR leukemia = tested on: SR leukemia
T-47D breast = tested on: T-47D breast
UACC-257 melanoma = tested on: UACC-257 melanoma

| SMILES | TGI (786-0 renal) [µM] | TGI (A498 renal) [µM] | TGI (A549 NSCLC) [µM] | TGI (HCC-2998 colon) [µM] | TGI (HCT-116 colon) [µM] | TGI (HCT-15 colon) [µM] | TGI (IGROV1 ovarian) [µM] | TGI (MCF7 breast) [µM] | TGI (MDA-N) [µM] | TGI (NCI/ADR-RES ovarian) [µM] | TGI (PC-3 prostate) [µM] | TGI (RPMI-8226 leukemia) [µM] | TGI (SK-MEL-2 melanoma) [µM] | TGI (SR leukemia) [µM] | TGI (T-47D breast) [µM] | TGI (UACC-257 melanoma) [µM] | GI50 (IGROV1 ovarian) [µM] |
| --- | --- | --- | --- | --- | --- | --- | --- | --- | --- | --- | --- | --- | --- | --- | --- | --- | --- |
| CC(C)NC(=O)OCc1c(COC(=O)NC(C)C)c(-c2cc[n+](COC(=O)Cc3ccccc3)cc2)n2c1CCC2 | > 100 | > 100 | > 100 | > 100 | > 100 | > 100 | > 100 | > 100 | > 100 | > 100 | > 100 | > 100 | > 100 | > 100 | > 100 | > 100 |  |
| O=C(/C=C/c1ccc(O)c(O)c1)c1ccc(O)cc1O | 25.5 | 34.7 | 72.3 | 34.2 | 28 | 44.3 | 35.1 | 15.7 | 19.8 | > 84.1 | 52.6 | 55.2 | 33.4 | > 78.8 | 20 | 29.9 |  |
| CC(c1ccccc1)n1c2ccccc2c2c(N)ncnc21 (centres undefined) | 28.6 | 30.3 | 46.3 | 34.5 | 38.5 | 59.4 | 38.2 | 37.2 | 51.9 | 46.3 | 34.4 | 74.5 | 45.3 | 56.7 | 59.6 | 31.2 |  |
| Cc1cc(S(=O)(=O)Nc2nnc3c(Cl)cc(C(F)(F)F)cn23)c(S)cc1Cl | > 100 | > 100 | > 100 | > 100 | > 100 | > 100 | > 100 | > 100 | > 100 | > 100 | > 100 | > 100 | > 100 | > 100 | > 100 | > 100 |  |
| O=c1[nH]nc(-c2ccccc2)n1-n1cccc1 | > 100 | > 100 | > 100 | > 100 | > 100 | > 100 | > 100 | > 100 | > 100 | > 100 | > 100 | > 100 | > 100 | 97 | > 100 | > 100 |  |
| COc1cc(C2SCC(=O)N2c2ccc(Cl)cc2)cc(OC)c1OC (centres undefined) | 99.6 | > 100 | > 100 | > 100 | > 100 | > 100 | > 100 | > 100 | 20.9 | > 100 | > 100 | > 55.3 | > 100 | 39.2 | > 24.2 | > 100 |  |
| CCOC(=O)c1c(Br)c(-c2ccc([N+](=O)[O-])cc2)c(Br)n1C | > 10 | > 10 | > 10 | > 10 | > 10 | > 10 | > 10 | > 10 | > 10 | > 10 | > 10 | > 10 | > 10 | > 10 | > 10 | > 10 |  |
| CC(C)C1CCC(=O)CC1CCCCC1CC(=O)CC1O[Si](C)(C)C(C)(C)C (centres undefined) | 17.1 | 27.1 | 32.9 | 19.3 | 15.3 | 21.4 | 8.24 | 27.2 | 21.1 | 21.2 | 43.1 | 5.6 | 24.5 | > 35.1 | 46.9 | 21.7 |  |
| CC(=O)O[C@H]1C(=O)[C@@]2(C)[C@H]([C@H](OC(=O)c3ccccc3)[C@]3(O)C[C@H](OC(=O)[C@H](O)[C@@H](NC(=O)OC(C)(C)C)c4ccco4)C(C)=C1C3(C)C)[C@]1(OC(C)=O)CO[C@@H]1C[C@@H]2O | > 50 | 22.7 | > 50 | 0.00901 | 17.5 | 12.3 | > 50 | 0.247 | 0.0325 | 0.643 | > 50 | > 28.2 | 10.9 | > 29 | > 50 | > 47.2 |  |
| C/C1=C\CC[C@@]2(C)O[C@@H]2C[C@@H]2[C@H](C/C(C)=C/CC1)OC(=O)[C@]21CO1 | > 100 | > 100 | > 100 | > 100 | > 100 | > 100 | > 100 | > 100 | > 100 | > 100 | > 100 | > 100 | > 100 | > 100 | > 100 | > 100 |  |
| CCOC(=O)CN1C(=O)c2c(NC(=O)C(=O)O)cccc2S1(=O)=O | > 100 | > 100 | > 100 | > 100 | > 100 | > 100 | > 100 | > 100 | > 100 | > 100 | > 100 | > 100 | > 100 | > 100 | > 100 | > 100 |  |
| COc1ccc2nc3c([N+](=O)[O-])ccc4c3c(c2c1)N=CN4CCN(C)C | 21.5 | 15.4 | 19.2 | 20.3 | 13.6 | 16.6 | 13.2 | 14.2 | 16.9 | 22 | 35.4 | 8.27 | 31.6 | 0.855 | 22.4 | 16.1 |  |
| CC(=O)OC1CC2C(=O)CC1(C)C2(C)C (centres undefined) | > 100 | > 100 | > 100 | > 100 | > 100 | > 100 | > 100 | > 100 | > 100 | > 100 | > 100 | > 100 | > 100 | > 100 | > 100 | > 100 | > 100 |
